What was measured:
Assay in all cases: relative viability (nuclei count vs DMSO), 5 days (fraction); higher = more cells survive
Daporinad + Navitoclax = compound: O=C(/C=C/c1cccnc1)NCCCCC1CCN(C(=O)c2ccccc2)CC1 [Daporinad] + CC1(C)CCC(c2ccc(Cl)cc2)=C(CN2CCN(c3ccc(C(=O)NS(=O)(=O)c4ccc(N[C@H](CCN5CCOCC5)CSc5ccccc5)c(S(=O)(=O)C(F)(F)F)c4)cc3)CC2)C1 [Navitoclax] (partner 0.5 µM)
Method in brief: (§1)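 Cells from lung cancer lines were seeded into 1536-well plates and, one day later, dosed by pin tool. Treatments were either a single drug or a fixed dose of an anchor drug with five library-drug doses (not always all listed) in √10 steps. After 5 days, nuclei were stained in a one-step fixation (final 0.05% Triton X-100, 1% formaldehyde, 1 ug/ml Hoechst) and counted on 4× images, and relative viability is the treated-to-vehicle nuclei ratio, as the median of duplicate plates.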

R406 + Bortezomib = compound: COc1cc(Nc2ncc(F)c(Nc3ccc4c(n3)NC(=O)C(C)(C)O4)n2)cc(OC)c1OC [R406] + CC(C)C[C@H](NC(=O)[C@H](Cc1ccccc1)NC(=O)c1cnccn1)B(O)O [Bortezomib] (partner 0.002 µM)
Method in brief: as §1

Daporinad + Tozasertib = compound: O=C(/C=C/c1cccnc1)NCCCCC1CCN(C(=O)c2ccccc2)CC1 [Daporinad] + Cc1cc(Nc2cc(N3CCN(C)CC3)nc(Sc3ccc(NC(=O)C4CC4)cc3)n2)n[nH]1 [Tozasertib] (partner 0.1 µM)
Method in brief: as §1

R406 + Trametinib = compound: COc1cc(Nc2ncc(F)c(Nc3ccc4c(n3)NC(=O)C(C)(C)O4)n2)cc(OC)c1OC [R406] + CC(=O)Nc1cccc(-n2c(=O)n(C3CC3)c(=O)c3c(Nc4ccc(I)cc4F)n(C)c(=O)c(C)c32)c1 [Trametinib] (partner 0.02 µM)
Method in brief: as §1

How did the relative viability (Daporinad + Navitoclax; first compound 0.0005 µM) turn out when UMC-11 was run?
The relative viability was 0.335.

And the relative viability (Daporinad + Navitoclax; first compound 0.001581 µM)?
The relative viability was 0.33.

What about the relative viability (Daporinad + Navitoclax; first compound 0.005 µM) of the same cell line?
Its relative viability is 0.377.

And the relative viability (Daporinad + Navitoclax; first compound 0.01581 µM)?
The relative viability was 0.288.

What about the relative viability (R406 + Bortezomib; first compound 0.08 µM) of the same cell line?
Its relative viability is 0.78.

What about the relative viability (R406 + Bortezomib; first compound 0.253 µM) of the same cell line?
Its relative viability is 0.996.

What about the relative viability (R406 + Bortezomib; first compound 0.8 µM) of the same cell line?
Its relative viability is 0.99.

What about the relative viability (R406 + Bortezomib; first compound 2.53 µM) of the same cell line?
The relative viability was 0.251.

What about the relative viability (R406 + Bortezomib; first compound 8 µM) of the same cell line?
Its relative viability is 0.342.

And the relative viability (Daporinad + Tozasertib; first compound 0.0005 µM)?
Its relative viability is 0.21.

And the relative viability (Daporinad + Tozasertib; first compound 0.001581 µM)?
The relative viability was 0.208.

What about the relative viability (Daporinad + Tozasertib; first compound 0.005 µM) of the same cell line?
Its relative viability is 0.207.

What about the relative viability (Daporinad + Tozasertib; first compound 0.01581 µM) of the same cell line?
The relative viability was 0.2.

What about the relative viability (R406 + Trametinib; first compound 0.08 µM) of the same cell line?
The relative viability was 0.724.

And the relative viability (R406 + Trametinib; first compound 0.253 µM)?
The relative viability was 0.959.

And the relative viability (R406 + Trametinib; first compound 0.8 µM)?
Its relative viability is 0.776.

What about the relative viability (R406 + Trametinib; first compound 2.53 µM) of the same cell line?
Its relative viability is 0.874.

And the relative viability (R406 + Trametinib; first compound 8 µM)?
Its relative viability is 0.482.

Source: the supplement of paper PMC10307832
